Measurements from US7714146B2, “Azulene-oxindole compounds as multiple-kinase inhibitors and useful as anticancer agents” (Industrial Technology Research Institute, priority 2006, dated 2010).

Key:
Assay type in all cases: biochemical
[1] = target: T1, human c-KIT (Thr544-Val976) (Homo sapiens, UniProt P10721); assay: c-KIT kinase assay (HTScan kit, DELFIA); details: for inhibition at 0.1 µM: compound at 0.1 μM, read-out: c-KIT 0.1 μM, % of inhibition relative to control; for inhibition at 1 µM: compound at 1 μM, read-out: c-KIT 1 μM, % of inhibition relative to control
T1 construct: human c-KIT (Thr544-Val976); GST (N); purchased Cell Signaling Technology; host or cells: baculovirus expression system
T1 sequence (P10721 544-976): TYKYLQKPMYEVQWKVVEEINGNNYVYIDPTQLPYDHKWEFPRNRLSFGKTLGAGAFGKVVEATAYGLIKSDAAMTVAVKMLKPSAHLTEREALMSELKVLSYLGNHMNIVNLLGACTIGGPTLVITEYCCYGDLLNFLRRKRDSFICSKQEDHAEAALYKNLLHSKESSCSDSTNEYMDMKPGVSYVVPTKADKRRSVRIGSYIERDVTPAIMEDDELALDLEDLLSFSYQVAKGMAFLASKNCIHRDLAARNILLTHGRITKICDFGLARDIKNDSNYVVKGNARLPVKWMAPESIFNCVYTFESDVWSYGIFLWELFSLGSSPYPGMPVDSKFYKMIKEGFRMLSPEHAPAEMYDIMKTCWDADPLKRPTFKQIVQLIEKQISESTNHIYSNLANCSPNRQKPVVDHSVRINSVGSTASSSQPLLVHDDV
Method in brief: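 GST-tagged human c-KIT (Thr544-Val976) from baculovirus, with 1.5 μM biotinylated KDR Tyr-996 peptide and 20 μM ATP in HEPES pH 7.5 buffer containing Mg2+/Mn2+ and 1% DMSO. Enzyme and compound pre-incubated 5 min, reaction run 30 min at room temperature; phosphorylation detected by DELFIA.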

[2] = target: T2, human FLT-3 (Arg571-Ser993) (Homo sapiens, UniProt P36888); assay: FLT-3 kinase assay (HTScan kit, DELFIA); details: for inhibition at 1 µM: compound at 1 μM, read-out: FLT-3 1 μM, % of inhibition relative to control; for inhibition at 0.1 µM: compound at 0.1 μM, read-out: FLT-3 0.1 μM, % of inhibition relative to control
T2 construct: human FLT-3 (Arg571-Ser993); GST (N); purchased Cell Signaling Technology; host or cells: baculovirus expression system
T2 sequence (P36888 571-993): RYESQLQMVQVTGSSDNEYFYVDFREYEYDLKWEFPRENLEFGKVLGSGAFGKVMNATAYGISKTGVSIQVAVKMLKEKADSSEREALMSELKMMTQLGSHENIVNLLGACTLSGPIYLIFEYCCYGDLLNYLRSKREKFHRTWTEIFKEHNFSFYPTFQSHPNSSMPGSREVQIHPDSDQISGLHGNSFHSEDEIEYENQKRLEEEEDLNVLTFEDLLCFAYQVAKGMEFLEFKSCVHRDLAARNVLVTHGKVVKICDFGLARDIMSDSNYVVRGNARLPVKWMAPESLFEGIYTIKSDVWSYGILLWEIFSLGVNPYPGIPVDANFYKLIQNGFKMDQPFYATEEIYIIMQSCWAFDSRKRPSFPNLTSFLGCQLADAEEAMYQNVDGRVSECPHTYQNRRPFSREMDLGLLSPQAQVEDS
Method in brief: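 GST-tagged human FLT-3 (Arg571-Ser993, baculovirus-expressed) phosphorylated 1.5 μM biotinylated gastrin precursor peptide with 20 μM ATP in HEPES pH 7.5, Mg/Mn buffer and 1% DMSO. After 5 min preincubation, the reaction ran 30 min at room temperature. Phosphorylation was read by DELFIA.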

[3] = target: T3, human VEGFR-2 (Val789-Val1356) (Homo sapiens, UniProt P35968); assay: KDR kinase assay (HTScan VEGFR-2 kit, DELFIA); details: for inhibition at 0.1 µM: compound at 0.1 μM, read-out: KDR 0.1 μM, % of inhibition relative to control; for inhibition at 1 µM: compound at 1 μM, read-out: KDR 1 μM, % of inhibition relative to control
T3 construct: human VEGFR-2 (Val789-Val1356); GST (N); purchased Cell Signaling Technology; host or cells: baculovirus expression system
T3 sequence (P35968 789-1356): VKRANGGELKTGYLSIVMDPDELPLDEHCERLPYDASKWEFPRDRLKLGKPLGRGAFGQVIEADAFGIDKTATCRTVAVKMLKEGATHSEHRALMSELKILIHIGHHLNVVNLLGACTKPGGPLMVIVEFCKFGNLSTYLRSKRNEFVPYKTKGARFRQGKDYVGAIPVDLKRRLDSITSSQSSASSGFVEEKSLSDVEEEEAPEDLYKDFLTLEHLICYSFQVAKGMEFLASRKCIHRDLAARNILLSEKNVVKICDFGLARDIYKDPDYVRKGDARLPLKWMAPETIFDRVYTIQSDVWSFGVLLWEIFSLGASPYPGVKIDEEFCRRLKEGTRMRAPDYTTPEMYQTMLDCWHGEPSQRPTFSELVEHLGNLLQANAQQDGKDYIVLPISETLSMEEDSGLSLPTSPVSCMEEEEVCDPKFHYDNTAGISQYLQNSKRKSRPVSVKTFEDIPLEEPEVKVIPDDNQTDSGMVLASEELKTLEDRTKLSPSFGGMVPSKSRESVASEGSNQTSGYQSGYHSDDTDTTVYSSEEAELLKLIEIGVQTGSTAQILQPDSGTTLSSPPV
Method in brief: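 GST-tagged human VEGFR-2 (Val789-Val1356) from baculovirus, with 1.5 μM biotinylated gastrin precursor peptide and 20 μM ATP in HEPES pH 7.5, Mg/Mn, vanadate, DTT, 1% DMSO. Pre-incubation 5 min, reaction 30 min at room temperature; phosphorylation read by DELFIA.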

[4] = target: T4, human PDGFRβ (Gln557-Leu1106) (Homo sapiens, UniProt P09619); assay: PDGFR-beta kinase assay (HTScan kit, DELFIA); details: compound at 10 μM
T4 construct: human PDGFRβ (Gln557-Leu1106); GST (N); purchased Cell Signaling Technology; host or cells: baculovirus expression system
T4 sequence (P09619 557-1106): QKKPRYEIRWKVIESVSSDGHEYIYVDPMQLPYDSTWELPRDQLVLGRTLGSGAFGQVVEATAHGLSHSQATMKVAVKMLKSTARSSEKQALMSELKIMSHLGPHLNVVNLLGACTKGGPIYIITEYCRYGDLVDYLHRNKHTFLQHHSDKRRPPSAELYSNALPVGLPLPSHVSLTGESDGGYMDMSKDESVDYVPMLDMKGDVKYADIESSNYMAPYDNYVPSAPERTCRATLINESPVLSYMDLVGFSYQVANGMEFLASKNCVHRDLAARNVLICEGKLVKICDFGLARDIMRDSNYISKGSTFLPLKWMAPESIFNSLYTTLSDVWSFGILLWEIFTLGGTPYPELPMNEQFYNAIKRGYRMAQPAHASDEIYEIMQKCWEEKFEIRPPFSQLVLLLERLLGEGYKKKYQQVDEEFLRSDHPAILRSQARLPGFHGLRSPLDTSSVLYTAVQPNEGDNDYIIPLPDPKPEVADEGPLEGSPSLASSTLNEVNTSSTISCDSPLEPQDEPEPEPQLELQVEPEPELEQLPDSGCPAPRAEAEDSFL
Experimental: Compounds 1-100 were treated for their efficacy in inhibiting activities of FLT-3, c-KIT, KDR/Flk-1, PDGFR-beta, EGFR, and PKC kinases by biochemical DELFIA (Dissociation Enhanced Lanthanide FIA) assays according to the procedure described below. The assays were conducted by, Division of Cell Engineering, Biomedical Engineering Research Laboratories, Industrial Technology Research Institute, Bldg. 53, 195, sec. 4, Chung Hsing Rd. Chutung, Hsinchu, Taiwan 310, R.O.C.
The PDGFR-beta assay was conducted following the protocol described in Protocol for HTScan® PDGFR-beta Kinase Assay Kit (Cell Signaling Technology®). The assay was conducted under the following conditions: PDGFR-beta source: The GST-Kinase fusion protein was produced using a baculovirus expression system with a construct expressing human PDGFRβ (Gln557-Leu1106) (GenBank Accession No. NM_002609) with an amino-terminal GST tag, substrate: This biotinylated peptide contains the residues surrounding Tyr-589 of FLT-3, vehicle: 1% DMSO, pre-incubation time/temperature: 5 minutes at room temperature, incubation time/temperature: 30 minutes at room temperature, incubation buffer: 60 mM HEPES pH 7.5, 5 mM MgCl2, 5 mM MnCl2, 3 μM Na3VO4, 1.25 mM DTT, 20 μM ATP, and quantitative method: DELFIA® Assay.

SMILES: O=C1Nc2ccc([N+](=O)[O-])cc2/C1=C/c1ccc2cccccc1-2 [Compound 8, 3-Azulen-1-ylmethylene-5-nitro-1,3-dihydro-indol-2-one]
- inhibition at 0.1 µM [1]: 36.4%
- inhibition at 1 µM [1]: 36.4%
- inhibition at 1 µM [2]: 11.5%
- inhibition at 0.1 µM [3]: 26.4%
- inhibition at 1 µM [3]: 55.9%
- PDGFR-β 10 μM, % of inhibition relative to control [4]: 16.2%

SMILES: O=C1Nc2ccc(F)cc2/C1=C/c1ccc2cccccc1-2 [Compound 26, 3-Azulen-1-ylmethylene-5-fluoro-1,3-dihydro-indol-2-one]
- inhibition at 0.1 µM [1]: 60.4%
- inhibition at 1 µM [1]: 60.4%
- inhibition at 0.1 µM [2]: 5%
- inhibition at 1 µM [2]: 34.7%
- inhibition at 0.1 µM [3]: 33.9%
- inhibition at 1 µM [3]: 59.1%
- PDGFR-β 10 μM, % of inhibition relative to control [4]: 7.9%

SMILES: O=C1Nc2ccc(Cl)cc2/C1=C\c1ccc2cccccc1-2 [Compound 22, 3-Azulen-1-ylmethylene-5-chloro-1,3-dihydro-indol-2-one]
- inhibition at 0.1 µM [1]: 16.6%
- inhibition at 1 µM [1]: 16.6%
- inhibition at 0.1 µM [2]: 28.8%
- inhibition at 1 µM [2]: 30.3%
- inhibition at 0.1 µM [3]: 15.6%
- inhibition at 1 µM [3]: 40.6%
- PDGFR-β 10 μM, % of inhibition relative to control [4]: 5.3%

SMILES: Cc1cc(C)c2ccc(/C=C3/C(=O)Nc4ccccc43)c-2c(C)c1 [Compound 9, 3-(4,6,8-Trimethyl-azulen-1-ylmethylene)-1,3-dihydro-indol-2-one]
- inhibition at 0.1 µM [1]: 11.5%
- inhibition at 1 µM [1]: 11.5%
- inhibition at 1 µM [2]: 3.8%
- inhibition at 0.1 µM [3]: 12.3%
- inhibition at 1 µM [3]: 33.4%
- PDGFR-β 10 μM, % of inhibition relative to control [4]: 14.7%

SMILES: O=C1Nc2ccccc2/C1=C\c1c2cccccc-2[nH]c1=O [Compound 27, 3-(2-Oxo-1,2-dihydro-indol-3-ylidenemethyl)-1H-cyclohepta[b]pyrrol-2-one]
- inhibition at 0.1 µM [1]: 25.7%
- inhibition at 1 µM [1]: 25.7%
- inhibition at 0.1 µM [2]: 8.6%
- inhibition at 1 µM [2]: 30.9%
- inhibition at 0.1 µM [3]: 25.9%
- inhibition at 1 µM [3]: 39.5%
- PDGFR-β 10 μM, % of inhibition relative to control [4]: 5.3%
